In ChEMBL document CHEMBL4680185, “Discovery of novel cyclin-dependent kinase (CDK) and histone deacetylase (HDAC) dual inhibitors with potent in vitro and in vivo anticancer activity” (Eur J Med Chem, 2020):

Key:
Test in all cases: cells
Assay type in all cases: functional
Conditions in all cases: Homo sapiens, time 72 hrs, read-out: GI
NCI-H460 [1] = tested on: NCI-H460
HCT-116 [2] = tested on: HCT-116
HCT-116 [3] = tested on: HCT-116; remark: listed apart in the source
NCI-H460 [4] = tested on: NCI-H460; remark: listed apart in the source

SMILES	inhibition of growth at 2 µM (NCI-H460 [1])	inhibition of growth at 8 µM (HCT-116 [2])	inhibition of growth at 2 µM (HCT-116 [3])	inhibition of growth at 8 µM (NCI-H460 [4])
O=C(CCCCCCNC(=O)c1n[nH]cc1NC(=O)c1c(F)cccc1F)NO	3.57%	13.8%	12.1%	6.84%
COc1ccccc1C(=O)Nc1c[nH]nc1C(=O)Nc1ccc(CC(=O)Nc2ccccc2N)cc1	3.12%	30.5%	13.6%	26.8%
Nc1ccccc1NC(=O)Cc1ccc(NC(=O)c2n[nH]cc2NC(=O)c2ccccc2)cc1	0.37%	69.2%	60%	8.93%
O=C(CCCNC(=O)c1n[nH]cc1NC(=O)c1c(F)cccc1F)NO	13%	6.54%	0.91%	25.3%
O=C(Cc1ccc(NC(=O)c2n[nH]cc2NC(=O)c2c(F)cccc2Cl)cc1)NO	12.5%	44.9%	21.7%	37%
O=C(NO)c1ccc(CNC(=O)c2n[nH]cc2NC(=O)c2c(F)cccc2Cl)cc1		59.3%		27.7%
O=C(Cc1ccc(NC(=O)c2n[nH]cc2NC(=O)c2c(F)cccc2F)cc1)NO	0.04%	25.6%	29.9%	30.2%
O=C(CCCCCNC(=O)c1n[nH]cc1NC(=O)c1c(Cl)cccc1Cl)NO	15.1%	4.66%	3.02%	21.3%
COc1ccccc1C(=O)Nc1c[nH]nc1C(=O)Nc1ccc(CC(=O)NO)cc1	1.58%	24.5%	9.38%	24.2%
O=C(Cc1ccc(NC(=O)c2n[nH]cc2NC(=O)c2ccccc2)cc1)NO	11.8%	14.2%	9.56%	23.1%
O=C(CCCCNC(=O)c1n[nH]cc1NC(=O)c1c(F)cccc1F)NO	0.4%	14.9%	5.76%	15.8%
Nc1ccccc1NC(=O)Cc1ccc(NC(=O)c2n[nH]cc2NC(=O)c2ccccc2Cl)cc1	3.08%	52%	29.2%	27.8%
O=C(CCCCCCNC(=O)c1n[nH]cc1NC(=O)c1c(Cl)cccc1Cl)NO	17%	20.1%	1.07%	17.9%
O=C(Cc1ccc(NC(=O)c2n[nH]cc2NC(=O)c2ccccc2Cl)cc1)NO	9.04%	4.52%	0.84%	26.6%
O=C(CCCCCCNC(=O)c1n[nH]cc1NC(=O)c1c(F)cccc1Cl)NO	0.88%	15.7%	10%	28.7%
COc1ccccc1C(=O)Nc1c[nH]nc1C(=O)NCc1ccc(C(=O)NO)cc1	16%	68.8%	43.8%	45.6%
Nc1ccccc1NC(=O)Cc1ccc(NC(=O)c2n[nH]cc2NC(=O)c2ccccc2F)cc1	6.06%	20.4%	16.5%	23.4%
O=C(NO)c1ccc(CNC(=O)c2n[nH]cc2NC(=O)c2ccccc2)cc1	12%	61.7%	29.4%	31.6%
O=C(CCCCCNC(=O)c1n[nH]cc1NC(=O)c1c(F)cccc1F)NO	22.9%	59.4%	4.87%	28.8%
